From patent US20070203066A1, “Compositions and methods for inhibiting cellular proliferation” (priority 2005, published 2007)
Non-standard residues stand in square brackets, D forms with d. Primed or numbered codes have the meaning given here. No end group written: not given here. Ida(3) = iminodiacetic acid linker, Lys side-chain amines bound to its two carboxyl groups; Ida(4) = iminodiacetic acid linker (dimerization linker bound to lysine side chain); ATA = not defined here; Ahx = NCCCCCC(=O)O

Test system: HUVECs
Assay type: cell-based
Conditions: HUVEC proliferation, bFGF at 10 ng/ml or VEGF at 5 ng/ml, 48 hours, BrdU incorporation; read-out: IC50 on HUVECs
In short: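 HUVECs seeded at 5,000 cells/well in EBM with 2% FCS, adhered ≥12 hours, then stimulated with bFGF 10 ng/ml or VEGF 5 ng/ml plus varying peptide concentrations. After 48 hours at 37 ° C, 5% CO2, proliferation inhibition read by BrdU incorporation.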

Substance | IC50
421 (Ac-RRRRRQAVAIKF; not fully specified (residue 11); also: homodimer of residues 1-12 via Ida linker on K11 side chain) [compound 421] | < 10 µM
KTKRKRIKQRVKRAYEEIF [compound 137] | > 30 µM
281 (Ac-RRRRHQAVAIYFK-NH2; not fully specified (residue 13); also: homodimer via Ida linker on Lys13 side chain) [compound 281] | < 10 µM
273 (Ac-RARRRQAVAITFK-NH2; not fully specified (residue 13); also: homodimer: Lys13 side chain bound to Ida linker) [compound 273] | < 10 µM
411 (Ac-TRRRRQAVAIYFK; not fully specified (residue 13, C-terminus); also: homodimer via Ida linker on Lys side chains, linker at 13 via Ida, other end not in the chain) [compound 411] | < 10 µM
321 (XRRRRQHVAIYFK; Xaa = Acylated Histidine; The side chain of Lysine at position 13 is covalently bound to an Ida linker forming a homodimer of residues 1 through 13.) [compound 321] | < 10 µM
311 (Ac-RRRRRQAVRITITFK) [compound 311] | < 10 µM
198 (Ac-RARARQRVRIIF; also: dimer: C-terminal Phe bound to an amino group of a Lys linker, 2 chains per Lys) [compound 198] | < 10 µM
NKRKKQRVKIIFVKVFIIKVRQKKRKN [compound 151] | < 10 µM
446 (Ac-RRRRRQAVAIYFK(ATA); reading uncertain; also: homotrimer via Ata linker at K13) [compound 446] | < 10 µM
449 (Ac-RRRRRAAAAAAAK(Ida(4)); not fully specified (C-terminus); also: homodimer via Ida linker at K13) [compound 449] | > 30 µM
KRKKQRVKIAYEEIFV [compound 63] | < 10 µM
481 (Ac-PRRRYQAVAIYFK; not fully specified (residue 13, C-terminus); also: homodimer via Ida linker on Lys13 side chain) [compound 481] | 10 to 30 µM
193 (Ac-ARRARQRVRIIF; also: dimer: C-terminal Phe bound to an amino group of a Lys linker, 2 chains per Lys) [compound 193] | < 10 µM
217 (Ac-AHHHHQHVAIIF; also: dimer: Phe C-termini joined via Lys linker) [compound 217] | > 30 µM
283 (Ac-RRRRAQAVHIYFK-NH2; not fully specified (residue 13); also: homodimer: Lys13 side chain bound to Ida linker) [compound 283] | < 10 µM
250 (Ac-RRRRRQAVAIHFK; not fully specified (C-terminus); also: homodimer: side chain of Lys13 bound to an Ida linker) [compound 250] | < 10 µM
252 (Ac-ARRRRQRVAIIF[dK]; not fully specified (C-terminus); also: homodimer: side chain of Lys13 bound to an Ida linker) [compound 252] | < 10 µM
KTKRKRKKQRVKIAFVQNM [compound 110] | 10 to 30 µM
471 (Ac-PRRRFQAVAIYFK(Ida(3)); not fully specified (C-terminus); also: homodimer via Ida linker on Lys13 side chain) [compound 471] | > 30 µM
358 (Ac-RRRRRQAVRIDIDFK; not fully specified) [compound 358] | > 30 µM
1 ([Ahx]RTRRRRRRQRVRIAYEEIFVRNM) [compound 1] | < 10 µM
